Results on 30 compounds are retold here after patent US10111874B2, “Combination therapies for treatment of cancer” (Araxes Pharma LLC, priority 2014, dated 2018).

The experiment deals with T1, KRAS G12C 1-169, his-tagged protein, GDP-loaded (Homo sapiens, UniProt P01116, G12C).
T1 construct: KRAS G12C 1-169, his-tagged protein, GDP-loaded
The experiment in a line: Biochemical assay: covalent binding to KRAS G12C analyzed by mass spectrometry. Note: test concentration or dose not given here.

Setting [1] is: compounds 48-246, measured at 2 h.
[2] abbreviates: compounds 247-342, measured at 30 min.
Where [3] appears, read: compounds 1-47, measured at 24 h.

T1 sequence (P01116 1-169 isoform P01116-2 G12C): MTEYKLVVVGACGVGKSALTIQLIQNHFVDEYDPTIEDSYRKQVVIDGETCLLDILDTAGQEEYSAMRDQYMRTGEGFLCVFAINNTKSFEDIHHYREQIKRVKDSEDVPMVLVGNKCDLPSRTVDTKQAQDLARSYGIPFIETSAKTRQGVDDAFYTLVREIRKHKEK

On to `C=CC(=O)N1CC(N2CCN(C(=O)CCc3cc(C4CC4)c(Cl)cc3O)CC2)C1` [II-58, 1-(3-(4-(3-(4-Chloro-5-cyclopropyl-2-hydroxyphenyl)propanoyl)piperazin-1-yl)azetidin-1-yl)prop-2-en-1-one], for which the Binding % entry (determined at 2 hrs) is “+ (+indicates binding activity from 5% to 20%)”.
On to `C=CC(=O)N1CCN(c2ncnc3cc(-c4ccccc4-c4cncs4)c(Cl)cc23)CC1` [Compound I-187, 1-(4-(6-chloro-7-(2-(thiazol-5-yl)phenyl)quinazolin-4-yl)piperazin-1-yl)prop-2-en-1-one], for which the Binding % result under setting [1] is “+++ (+++indicates binding activity greater than 50% and up to 75%)”.
With `C#Cc1ccccc1-c1cc2ncnc(N3CCN(C(=O)C=C)CC3)c2cc1Cl` [Compound I-154, 1-(4-(6-chloro-7-(2-ethynylphenyl)quinazolin-4-yl)piperazin-1-yl)prop-2-en-1-one], under setting [1], the Binding % entry was “++ (++indicates binding activity greater than 25% and up to 50%)”.
Same read-out and setting: the same measure for `C=CC(=O)N1CCN(c2ncnc3cc(Cl)ccc23)CC1C#N` (stereo not drawn) [Compound I-48, 1-acryloyl-4-(7-chloroquinazolin-4-yl)piperazine-2-carbonitrile]: “++++ (++++indicates binding activity greater than 75%)”; for `C=CC(=O)N1CCN(c2ncnc3cc(Cl)c(Br)cc23)CC1C#N` (stereo not drawn) [Compound I-49, 1-acryloyl-4-(6-bromo-7-chloroquinazolin-4-yl)piperazine-2-carbonitrile]: “++++ (++++indicates binding activity greater than 75%)”; for `C=CC(=O)N1CCN(c2ncnc3cc(-c4ccc(Cl)cc4)c(Cl)cc23)CC1CC#N` (stereo not drawn) [Compound I-111, 2-(1-acryloyl-4-(6-chloro-7-(4-chlorophenyl)quinazolin-4-yl)piperazin-2-yl)acetonitrile]: “+++ (+++indicates binding activity greater than 50% and up to 75%)”.
On to `C=CC(=O)N1CCN(c2ncnc3cc(-c4cc(Cl)cc5cn[nH]c45)c(Cl)cc23)CC1` [Compound I-264, 1-(4-(6-chloro-7-(5-chloro-1H-indazol-7-yl)quinazolin-4-yl)piperazin-1-yl)prop-2-en-1-one], for which the Binding % entry under setting [2] is “++ (++indicates binding activity greater than 25% and up to 50%)”.
`CN(C)C/C=C/C(=O)N1CCN(c2ncnc3c(F)c(-c4ccccc4F)c(Cl)cc23)CC1` [Compound I-229, (E)-1-(4-(6-chloro-8-fluoro-7-(2-fluorophenyl)quinazolin-4-yl)piperazin-1-yl)-4-(dimethylamino)but-2-en-1-one]: the Binding % entry under setting [1] was “++ (++indicates binding activity greater than 25% and up to 50%)”.
Regarding `C=CC(=O)N1CCN(c2c(C#N)cnc3c(F)c(-c4c(C)ccc5[nH]ncc45)c(Cl)cc23)CC1C` (stereo not drawn) [Compound 336, 4-(4-acryloyl-3-methylpiperazin-1-yl)-6-chloro-8-fluoro-7-(5-methyl-1H-indazol-4-yl)quinoline-3-carbonitrile], under setting [2], the Binding % result is “+++ (+++indicates binding activity greater than 50% and up to 75%)”.
Turning to `C=CC(=O)N1CCC(N2CCN(C(=O)CNc3cc(Cl)c(Cl)cc3O)CC2)C1` (stereo not drawn) [II-2, 1-(3-(4-(2-(4,5-dichloro-2-hydroxyphenyl-amino)acetyl)piperazin-1-yl)pyrrolidin-1-yl)prop-2-en-1-one], the Binding % entry (determined at 24 hrs) is “+++ (+++indicates binding activity greater than 25% and up to 50%)”.
As for `C=CC(=O)N1CCN(c2ncnc3cc(Cl)c(-c4ccc(Cl)cc4)cc23)C[C@@H]1CO` [Compound I-65, (R)-1-(4-(7-chloro-6-(4-chlorophenyl)quinazolin-4-yl)-2-(hydroxymethyl)piperazin-1-yl)prop-2-en-1-one], the Binding % entry under setting [1] was “+ (+indicates binding activity from 5% to 25%)”.
Consider `C=CC(=O)N1CCN(c2cnnc3cc(-c4c(C)ccc5[nH]ncc45)c(Cl)cc23)CC1` [Compound I-238, 1-(4-(6-chloro-7-(5-methyl-1H-indazol-4-yl)cinnolin-4-yl)piperazin-1-yl)prop-2-en-1-one], for which the Binding % result under setting [1] was “+++ (+++indicates binding activity greater than 50% and up to 75%)”.
Still for that read-out and setting: the same measure for `C=CC(=O)N1CCN(c2ncnc3cc(-c4ccc(Cl)cc4)c(Cl)cc23)CC1` [Compound I-78, 1-(4-(6-chloro-7-(4-chlorophenyl)quinazolin-4-yl)piperazin-1-yl)prop-2-en-1-one]: “+ (+indicates binding activity from 5% to 25%)”.
For `C=CC(=O)N1CCN(c2ncnc3cc(Cl)c(-c4ccccc4Cl)cc23)CC1` [Compound I-1, 1-(4-(7-chloro-6-(2-chlorophenyl)quinazolin-4-yl)piperazin-1-yl)prop-2-en-1-one], under setting [3], the Binding % entry was “+++ (+++indicates binding activity greater than 50% and up to 75%)”.
For the compound `C=CC(=O)N1CCN(c2ncnc3cc(-c4csc5ccccc45)c(Cl)cc23)CC1` [Compound I-198, 1-(4-(7-(benzo[d]thiophen-3-yl)-6-chloroquinazolin-4-yl)piperazin-1-yl)prop-2-en-1-one], the Binding % result under setting [1] is recorded as “++++ (++++indicates binding activity greater than 75%)”.
`C=CC(=O)N1CCN(c2nc(OC)nc3cc(Cl)c(-c4ccc(Cl)cc4)cc23)CC1` [Compound I-43, 1-(4-(7-chloro-6-(4-chlorophenyl)-2-methoxyquinazolin-4-yl)piperazin-1-yl)prop-2-en-1-one]: under setting [3], the Binding % result is “+++ (+++indicates binding activity greater than 50% and up to 75%)”.
For `C=CC(=O)N1CCN(c2nccc3cc(-c4ccccc4)c(Cl)cc23)CC1` [Compound I-88, 1-(4-(7-chloro-6-phenylisoquinolin-1-yl)piperazin-1-yl)prop-2-en-1-one], the Binding % entry under setting [1] is “+ (+indicates binding activity from 5% to 25%)”.
For `C=CC(=O)N1CCN(c2nc(-c3cncs3)nc3c(F)c(-c4c(C)ccc5[nH]ncc45)c(Cl)cc23)CC1` [Compound 332, 1-(4-(6-chloro-8-fluoro-7-(5-methyl-1H-indazol-4-yl)-2-(thiazol-5-yl)quinazolin-4-yl)piperazin-1-yl)prop-2-en-1-one], the Binding % result under setting [2] is “++ (++indicates binding activity greater than 25% and up to 50%)”.
For the compound `C=CC(=O)N1CCN(c2ncnc3cc(F)c(-c4ccccc4Cl)cc23)CC1` [Compound I-33, 1-(4-(6-(2-chlorophenyl)-7-fluoroquinazolin-4-yl)piperazin-1-yl)prop-2-en-1-one], the Binding % result under setting [3] was “++ (++indicates binding activity greater than 25% and up to 50%)”.
For the compound `N#C/C=C\C(=O)N1CCN(c2ncnc3cc(-c4ccc(F)cc4F)c(Cl)cc23)CC1` [Compound I-263, (Z)-4-(4-(6-chloro-7-(2,4-difluorophenyl)quinaozlin-4-yl)piperazin-1-yl)-4-oxobut-2-enenitrile], the Binding % entry under setting [2] was “+ (+indicates binding activity from 5% to 25%)”.
`C=CC(=O)N1CCN(c2ncnc3c(F)c(-c4c(O)cccc4F)c(Cl)cc23)CC1` [Compound I-227, 1-(4-(6-chloro-8-fluoro-7-(2-fluoro-6-hydroxyphenyl)quinazolin-4-yl)piperazin-1-yl)prop-2-en-1-one]: the Binding % result under setting [1] was “++++ (++++indicates binding activity greater than 75%)”.
In the case of `C=CC(=O)N1CCN(c2ncnc3cc(-c4ccccc4F)c(Cl)cc23)CC1` [Compound I-81, 1-(4-(6-chloro-7-(2-fluorophenyl)quinazolin-4-yl)piperazin-1-yl)prop-2-en-1-one], the Binding % result under setting [1] was “+++ (+++indicates binding activity greater than 50% and up to 75%)”.
On to `C=CC(=O)N1CCN(c2ncnc3cc(-c4cc(F)ccc4C(N)=O)c(Cl)cc23)CC1` [Compound I-197, 2-(4-(4-acryloylpiperazin-1-yl)-6-chloroquinazolin-7-yl)-4-fluorobenzamide], for which the Binding % entry under setting [1] is “++ (++indicates binding activity greater than 25% and up to 50%)”.
With `C=CC(=O)N1CCN(c2ncnc3cc(Cl)c(-c4cccs4)cc23)CC1C#N` (stereo not drawn) [Compound I-51, 1-acryoyl-4-(7-chloro-6-(thiophen-2-yl)quinazaolin-4-yl)piperazine-2-carbonitrile], the Binding % result under setting [1] is reported as “++++ (++++indicates binding activity greater than 75%)”.
Take `C=CC(=O)N1CCN(c2nc(Nc3cnn(C)c3)nc3c(F)c(-c4c(C)ccc5[nH]ncc45)c(Cl)cc23)CC1` [Compound 322, 1-(4-(6-chloro-8-fluoro-7-(5-methyl-1H-indazol-4-yl)-2-(1-methyl-1H-pyrazol-4-ylamino)quinazolin-4-yl)piperazin-1-yl)prop-2-en-1-one]: the Binding % entry under setting [2] was “+++ (+++indicates binding activity greater than 50% and up to 75%)”.
With `C=CC(=O)N1CCN(c2ncnc3cc(-c4ccccc4C(F)(F)F)c(Cl)cc23)CC1C(N)=O` (stereo not drawn) [Compound I-121, 1-acryloyl-4-(6-chloro-7-(2-(trifluoromethyl)phenyl)quinazolin-4-yl)piperazine-2-carboxamide], under setting [1], the Binding % result is “++++ (++++indicates binding activity greater than 75%)”.
With `C=CC(=O)N1CCN(c2ncnc3cc(Cl)c(-c4ccc(C)s4)cc23)CC1` [Compound I-26, 1-(4-(7-chloro-6-(5-methylthiophen-2-yl)quinazolin-4-yl)piperazin-1-yl)prop-2-en-1-one], the Binding % result under setting [3] is “++ (++indicates binding activity greater than 25% and up to 50%)”.
Turning to `C=CC(=O)N1CCN(c2ncnc3c(F)c(-c4c(C)ccc5cn[nH]c45)c(Cl)cc23)CC1` [Compound I-274, 1-(4-(6-chloro-8-fluoro-7-(6-methyl-1H-indazol-7-yl)quinazolin-4-yl)piperazin-1-yl)prop-2-en-1-one], the Binding % entry under setting [2] is “++++ (++++indicates binding activity greater than 75%)”.
On to `C=CC(=O)N1CC(N2CCN(C(=O)CNc3cc(C4CC4(F)F)c(Cl)cc3O)CC2)C1` (stereo not drawn) [II-56, 1-(3-(4-((4-chloro-5-(2,2-difluorocyclopropyl)-2-hydroxyphenyl)glycyl)piperazin-1-yl)azetidin-1-yl)prop-2-en-1-one], for which, for the setting “determined at 2 hrs”, the Binding % entry was “++ (++indicates binding activity greater than 20%)”.
Turning to `C=CC(=O)N1CCN(c2ncnc3cc(-c4ccccc4C(C)C)c(Cl)cc23)CC1` [Compound I-99, 1-(4-(6-chloro-7-(2-isopeopylphenyl)quinazolin-4-yl)piperazin-1-yl)prop-2-en-1-one], under setting [1], the Binding % result is “+++ (+++indicates binding activity greater than 50% and up to 75%)”.
